This is an account of results in patent publication US9896441B2 (Lycera Corporation, priority 2014, dated 2018).

The EC50 is the concentration that produces a half-maximal response.

Where only a bound is given, the exact number is not on record here.

For one assay, the target named is T1, RORγ-LBD (Homo sapiens, UniProt P51449).
T1 construct: made in house; host or cells: SF9 cells (baculovirus); used as diluted lysate
T1 sequence (P51449 269-508 limits assumed): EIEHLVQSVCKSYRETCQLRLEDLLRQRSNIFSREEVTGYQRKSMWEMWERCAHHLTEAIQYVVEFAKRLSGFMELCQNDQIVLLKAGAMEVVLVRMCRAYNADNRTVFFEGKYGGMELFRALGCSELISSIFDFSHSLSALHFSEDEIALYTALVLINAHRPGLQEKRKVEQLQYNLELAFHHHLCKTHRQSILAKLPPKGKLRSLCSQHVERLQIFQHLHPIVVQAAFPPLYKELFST
The assay can be described thus: RORγ-Ligand Binding Domain (LBD) TR-FRET Assay.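 For TR-FRET Assay Max Response: 665/615 nm signal ratio set to 100 without ursolic acid or test compound.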 The settings on record: for TR-FRET Assay Max Response: maximum response. The assay is classed as biochemical. In short, it runs like this:
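Compounds, diluted in DMSO and then in assay buffer (1% DMSO final), were combined with His-tagged RORγ-LBD lysate at roughly 3 nM final and a 200 nM biotinylated SRC1 LXXLL peptide. Ursolic acid was included at 2 μM final. Coactivator recruitment was detected by TR-FRET.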
Background: In TR-FRET formats the signal depends on donor and acceptor labels being close together.

The next assay addresses T2, Gal4-RORγ-LBD (Homo sapiens, UniProt P51449).
T2 construct: expressed in transfected cells
T2 sequence (P51449 269-508 limits assumed): T1 sequence (P51449 269-508 limits assumed)
The assay can be described thus: Gal4-RORγ Luciferase Reporter Assay in HEK-293T Cells. The assay is classed as cell-based. To be noted: HEK-293 cells; for Gal4-RORγ Assay Max Response: maximum response. In short, it runs like this:
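Max Response was taken as the upper plateau of a 4-parameter logistic fit of luciferase signal, normalized to 100 for wells without ursolic acid or compound. Transiently Gal4-RORγ-LBD/Gal4-luc transfected HEK-293 cells carrying […] ursolic acid were incubated with test compounds (0.2% DMSO) overnight at 37 °C and read with One-Glo.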
In general terms: Reporter assays use an easily measured gene product as a stand-in for the process of interest.

Setting [1] is: luciferase reporter, in presence of ursolic acid.
Setting [2] is: luciferase reporter, with ursolic acid.
Setting [3] is: with 2 μM ursolic acid (RORγ antagonist), highest test concentration 10 μM.
[4] abbreviates: ursolic acid present, luciferase readout.

As to `C/C(=C\c1ccc2c(c1)N(S(=O)(=O)c1cccc(C(F)(F)F)c1)C[C@H](CCO)O2)c1c(F)cccc1Cl` [Example 106, (S,E)-2-(6-(2-(2-Chloro-6-fluorophenyl)prop-1-en-1-yl)-4-((3-(trifluoromethyl)phenyl)sulfonyl)-3,4-dihydro-2H-benzo[b][1,4]oxazin-2-yl)ethanol], on RORγ-LBD (RORγ-LBD TR-FRET assay), the half-maximal effective concentration (EC50) was less than 500 nM and the “TR-FRET Assay Max Response” value was “*** (a value in the range of greater than 150 to 200)”. Also, on Gal4-RORγ-LBD (setting [1]), the half-maximal effective concentration (EC50) is less than 500 nM and the “Gal4-RORγ Assay Max Response” value is “** (a value in the range of greater than 90 to 150)”.
As to `C/C(=C\c1ccc2c(c1)N(S(=O)(=O)c1cn(C3CC3)nc1OCCO)C[C@H](CCC(=O)O)O2)c1c(F)cccc1Cl` [Example 85, (S,E)-3-(6-(2-(2-Chloro-6-fluorophenyl)prop-1-en-1-yl)-4-((1-cyclopropyl-3-(2-hydroxyethoxy)-1H-pyrazol-4-yl)sulfonyl)-3,4-dihydro-2H-benzo[b][1,4]oxazin-2-yl)propanoic acid], the EC50 at RORγ-LBD (RORγ-LBD TR-FRET) and on Gal4-RORγ-LBD (setting [2]) was less than 500 nM throughout.
As to `COc1cccc(S(=O)(=O)N2C[C@H](CCC(=O)O)Oc3ccc(/C=C(\C)c4c(F)cccc4Cl)cc32)c1` [Example 86M, (S,E)-3-(6-(2-(2-chloro-6-fluorophenyl)prop-1-en-1-yl)-4-((3-methoxyphenyl)sulfonyl)-3,4-dihydro-2H-benzo[b][1,4]oxazin-2-yl)propanoic acid], the EC50 at RORγ-LBD (RORγ-LBD TR-FRET) is less than 500 nM; on Gal4-RORγ-LBD (setting [2]) it was 500 to 5000 nM.
Consider `O=C(O)C[C@H]1CN(S(=O)(=O)c2cccc(C(F)(F)F)c2)c2cc(COc3c(F)cccc3Cl)ccc2O1`, for which the values for the EC50 on RORγ-LBD (setting [3]) and at Gal4-RORγ-LBD (setting [4]) were less than 500 nM and 500 to 5000 nM, respectively.
With `COc1cc(S(=O)(=O)C2CC(CCC(=O)O)Oc3ccc(OCc4c(F)cccc4Cl)cc32)ccc1F` (stereo not shown) [Example 179, 3-(6-((2-Chloro-6-fluorobenzyl)oxy)-4-((4-fluoro-3-methoxyphenyl)sulfonyl)chroman-2-yl)propanoic acid], on RORγ-LBD (RORγ-LBD TR-FRET assay), the half-maximal effective concentration (EC50) is less than 500 nM and the “TR-FRET Assay Max Response” value was “** (a value in the range of greater than 90 to 150)”. For the same molecule, on Gal4-RORγ-LBD (setting [1]), the half-maximal effective concentration (EC50) was 500 to 5000 nM and the “Gal4-RORγ Assay Max Response” value was “*** (a value in the range of greater than 150 to 200)”.
With `COC(=O)CC[C@H]1CN(S(=O)(=O)c2cccc(C(F)(F)F)c2)c2cc(/C=C(\C)c3c(F)cccc3Cl)c(C)cc2O1` [Example 55, Methyl (S,E)-3-(6-(2-(2-chloro-6-fluorophenyl)prop-1-en-1-yl)-7-methyl-4-((3-(trifluoromethyl)phenyl)sulfonyl)-3,4-dihydro-2H-benzo[b][1,4]oxazin-2-yl)propanoate], the EC50 at RORγ-LBD (RORγ-LBD TR-FRET) and at Gal4-RORγ-LBD (setting [2]) was less than 500 nM throughout.
As to `N#CCC[C@H]1CN(S(=O)(=O)c2cccc(C(F)(F)F)c2)c2cc(CCc3c(F)cccc3Cl)ccc2O1`, the concentration giving a half-maximal response (EC50) on RORγ-LBD (setting [3]) and at Gal4-RORγ-LBD (setting [4]) was less than 500 nM each time.
Consider `O=C(O)CC[C@H]1CN(S(=O)(=O)c2cccc(C(F)(F)F)c2)c2cc(C=C3CCOCC3)ccc2O1` [Example 95N, (S)-3-(6-((tetrahydro-4H-pyran-4-ylidene)methyl)-4-((3-(trifluoromethyl)phenyl)sulfonyl)-3,4-dihydro-2H-benzo[b][1,4]oxazin-2-yl)propanoic acid], for which the concentration giving a half-maximal response (EC50) on RORγ-LBD (RORγ-LBD TR-FRET) was less than 500 nM; at Gal4-RORγ-LBD (setting [2]), 500 to 5000 nM.
The like results for `C/C(=C\c1cc(F)c2c(c1)N(S(=O)(=O)c1cccc(OC(F)F)c1)C[C@H](CCC(=O)O)O2)c1c(F)cccc1Cl` [Example 52, (S,E)-3-(6-(2-(2-Chloro-6-fluorophenyl)prop-1-en-1-yl)-4-((3-(difluoromethoxy)phenyl)sulfonyl)-8-fluoro-3,4-dihydro-2H-benzo[b][1,4]oxazin-2-yl)propanoic acid] were, in that order, less than 500 nM and 500 to 5000 nM.
In the case of `COC(=O)CC[C@H]1CN(S(=O)(=O)c2cccc(C(F)(F)F)c2)c2cc(/C=C(\C)c3c(F)cccc3Cl)c(Cl)cc2O1` [Example 45, (S,E)-Methyl 3-(7-chloro-6-(2-(2-chloro-6-fluorophenyl)prop-1-en-1-yl)-4-((3-(trifluoromethyl)phenyl)sulfonyl)-3,4-dihydro-2H-benzo[b][1,4]oxazin-2-yl)propanoate], the concentration giving a half-maximal response (EC50) on RORγ-LBD (RORγ-LBD TR-FRET) was less than 500 nM; on Gal4-RORγ-LBD (setting [2]), 500 to 5000 nM.
For the molecule `C/C(=C\c1c(F)cccc1Cl)c1ccc2c(c1)N(S(=O)(=O)c1cccc(C(F)(F)F)c1)C[C@H](CCC(=O)O)O2` [Example 32, (S,E)-3-(6-(1-(2-Chloro-6-fluorophenyl)prop-1-en-2-yl)-4-((3-(trifluoromethyl)phenyl)sulfonyl)-3,4-dihydro-2H-benzo[b][1,4]oxazin-2-yl)propanoic acid], the results for the EC50 at RORγ-LBD (RORγ-LBD TR-FRET) and at Gal4-RORγ-LBD (setting [2]) were less than 500 nM and 5000 to 10000 nM, respectively.
For the molecule `CC/C(=C\c1ccc2c(c1)N(S(=O)(=O)c1cc(C(F)(F)F)cnc1OCCO)C[C@H](CCC(=O)OC)O2)C(C)C` [Example 191F, methyl (S,E)-3-(6-(2-ethyl-3-methylbut-1-en-1-yl)-4-((2-(2-hydroxyethoxy)-5-(trifluoro-methyl)pyridin-3-yl)sulfonyl)-3,4-dihydro-2H-benzo[b][1,4]oxazin-2-yl)propanoate], the 50% effective concentration (EC50) at RORγ-LBD (setting [3]) was less than 500 nM; on Gal4-RORγ-LBD (setting [4]) it was 500 to 5000 nM.
As to `C/C(=C\c1ccc2c(c1)N(S(=O)(=O)c1cccc(OC(F)(F)F)c1)C[C@H](CCC(=O)O)O2)c1c(F)cccc1Cl` [Example 86S, (S,E)-3-(6-(2-(2-chloro-6-fluorophenyl)prop-1-en-1-yl)-4-((3-(trifluoromethoxy)phenyl)-sulfonyl)-3,4-dihydro-2H-benzo[b][1,4]oxazin-2-yl)propanoic acid], the results for the concentration for a half-maximal effect (EC50) on RORγ-LBD (RORγ-LBD TR-FRET) and on Gal4-RORγ-LBD (setting [2]) were less than 500 nM and 500 to 5000 nM, respectively.
In the case of `O=C(O)CC[C@H]1CN(S(=O)(=O)c2cn(C3CC3)nc2OCCO)c2cc(/C=C/c3c(Cl)cccc3C(F)(F)F)ccc2O1` [Example 89EG, (S,E)-3-(6-(2-chloro-6-(trifluoromethyl)styryl)-4-((1-cyclopropyl-3-(2-hydroxyethoxy)-1H-pyrazol-4-yl)sulfonyl)-3,4-dihydro-2H-benzo[b][1,4]oxazin-2-yl)propanoic acid], the EC50 at RORγ-LBD (RORγ-LBD TR-FRET) is less than 500 nM; on Gal4-RORγ-LBD (setting [2]), 500 to 5000 nM.
`C/C(=C\c1ccc2c(c1)N(S(=O)(=O)c1cccc(C(F)(F)F)c1)C[C@H](CNC(=O)N1CCC(C(=O)O)CC1)O2)c1c(F)cccc1Cl` [Example 116O, (S,E)-1-(((6-(2-(2-chloro-6-fluorophenyl)prop-1-en-1-yl)-4-((3-(trifluoromethyl)phenyl)sulfonyl)-3,4-dihydro-2H-benzo[b][1,4]oxazin-2-yl)methyl)carbamoyl)piperidine-4-carboxyic acid]: the EC50 on RORγ-LBD (setting [3]) and on Gal4-RORγ-LBD (setting [4]) was less than 500 nM in each case.
In the case of `COC(=O)CC[C@H]1CN(S(=O)(=O)c2cccc(C(F)(F)F)c2)c2cc(/C=C(\C)c3c(F)cccc3Cl)c(F)cc2O1` [Example 41, (S,E)-Methyl 3-(6-(2-(2-chloro-6-fluorophenyl)prop-1-en-1-yl)-7-fluoro-4-((3-(trifluoromethyl)phenyl)sulfonyl)-3,4-dihydro-2H-benzo[b][1,4]oxazin-2-yl)propanoate], the EC50 at RORγ-LBD (RORγ-LBD TR-FRET) and at Gal4-RORγ-LBD (setting [2]) was less than 500 nM each time.
For `C/C(=C\c1ccc2c(c1)N(S(=O)(=O)c1cccc(C(F)(F)F)c1)C[C@H](CCC#N)O2)c1c(F)cccc1Cl`, the EC50 on RORγ-LBD (setting [3]) and on Gal4-RORγ-LBD (setting [4]) was less than 500 nM throughout.
Turning to `COc1cc(S(=O)(=O)C2CC(CC(C)(C)C(=O)O)Oc3ccc(OCc4c(F)cccc4Cl)cc32)ccc1F` (stereo not shown) [Example 186C, 3-(6-((2-chloro-6-fluorobenzyl)oxy)-4-((4-fluoro-3-methoxyphenyl)sulfonyl)chroman-2-yl)-2,2-dimethylpropanoic acid], on RORγ-LBD (RORγ-LBD TR-FRET assay), the EC50 was less than 500 nM and the “TR-FRET Assay Max Response” value is on record as “*** (a value in the range of greater than 150 to 200)”. For the same molecule, at Gal4-RORγ-LBD (setting [1]), the EC50 was greater than 10000 nM and the “Gal4-RORγ Assay Max Response” value is recorded as “** (a value in the range of greater than 90 to 150)”.
As to `COC(=O)CCC[C@H]1CN(S(=O)(=O)c2cccc(C(F)(F)F)c2)c2cc(/C=C/c3c(F)cccc3Cl)ccc2O1` [Example 195E, methyl (S,E)-4-(6-(2-chloro-6-fluorostyryl)-4-((3-(trifluoro-methyl)phenyl)sulfonyl)-3,4-dihydro-2H-benzo[b][1,4]oxazin-2-yl)butanoate], the EC50 at RORγ-LBD (setting [3]) was less than 500 nM; at Gal4-RORγ-LBD (setting [4]), 500 to 5000 nM.
`COC(=O)CC[C@H]1CN(S(=O)(=O)c2cc(Cl)cnc2OCCO)c2cc(/C=C/c3c(F)cccc3Cl)ccc2O1` [Example 89AK, methyl (S,E)-3-(4-((5-chloro-2-(2-hydroxyethoxy)pyridin-3-yl)sulfonyl)-6-(2-chloro-6-fluorostyryl)-3,4-dihydro-2H-benzo[b][1,4]oxazin-2-yl)propanoate]: the EC50 on RORγ-LBD (RORγ-LBD TR-FRET) was less than 500 nM; at Gal4-RORγ-LBD (setting [2]) it was 500 to 5000 nM.
